Experimental data taken from patent US5380759A, “Methyl N-[6-(3,4,5-trimethoxybenzloxy)imidazo[1,2-b]pyridazin-2-zyl]carbamate used to treat leukemia” (priority 1987, dated 1995).
Starred links: 1 amine or outer side, 2 acyl side, 3 side chain; linkers in the order of their positions; H or OH if unused. Positions of bridges follow the written chain, without caps; N, C: chain ends. Non-standard residues stand in square brackets, D forms with d. Residues, ends and D or L forms follow the SMILES beside them. Chains are numbered I, II in the order given. Actinocin(9to1) = Cc1c2oc3c(C)ccc(C(=O)[*:1])c3nc-2c(C(=O)[*:2])c(N)c1=O; NMeV = CN[C@H](C(=O)O)C(C)C; Sar = CNCC(=O)O

What was measured:
P388/ADR = experiment: In vivo activity against drug resistant tumour P388/ADR; set-up: species or system mouse; conditions: optimum dose 4.5 mg/kg
Experimental: (§1) CD2-F1 mice, of the same sex, weighing within a 3 gram range surrounding 20 g, are used for this test. Control and test animals are injected intraperitoneally with a suspension of 10^6 viable P388/O tumour cells on day 0. In each test several dose levels which bracket the LD20 for the compound are evaluated; each dose level group contains 6 animals. The test compounds are prepared either in physiologic saline containing 0.05% Tween 80 or distilled water containing 5% dextrose and are administered intraperitoneally on days 1,5 and 9 relative to tumour implant. Doses are on a mg/kg basis according to individual animals' body weights. The day of death for each animal is recorded and the median day of death identified for each group. The difference between the median survival time for treated and control groups is expressed as a percentage increase in life span (% ILS).
(§2) E. Activity Against Drug-Resistant Tumours
(§3) Using a similar procedure to the Lymphocytic Leukaemia P388/O test, the compound of Example 1 was evaluated against P388/O tumours which had been made resistant to the following standard, clinically used anti-tumour agents: […]

P388/ActD = experiment: In vivo activity against drug resistant tumour P388/ActD; set-up: species or system mouse; conditions: optimum dose 0.5 mg/kg
Experimental: as §1, §2, §3

P388/BCNU = experiment: In vivo activity against drug resistant tumour P388/BCNU; set-up: species or system mouse; conditions: optimum dose 2.0 mg/kg
Experimental: as §1, §2
Using a similar procedure to the Lymphocytic Leukaemia P388/O test, the compound of Example 1 was evaluated against P388/O tumours which had been made resistant to the following standard, clinically used anti-tumour agents:
bis-chloronitrosourea (BCNU)

P388/CPA = experiment: In vivo activity against drug resistant tumour P388/CPA; set-up: species or system mouse; conditions: optimum dose 265.0 mg/kg
P388/Cis--Pt = experiment: In vivo activity against drug resistant tumour P388/Cis-Pt; set-up: species or system mouse; conditions: optimum dose 5.3 mg/kg
P388/5FU = experiment: In vivo activity against drug resistant tumour P388/5FU; set-up: species or system mouse; conditions: optimum dose 20.0 mg/kg
Experimental: as §1, §2, §3

tubulin = experiment: Turbidimetric assay of tubulin polymerisation; type: biochemical, horse; conditions: 37° C., increase in A350nm 10 min after lag phase; read-out: Total tubulin polymerisation IC50
Experimental: A) Tubulin Polymerisation Assay
1. Preparation of tubulin
All manipulations are performed at 4° C. unless otherwise specified. The horse brain is washed in ice-cold BBG buffer and superficial meninges and blood vessels removed. After weighing, cerebral cortices are chopped, homogenised in 75 ml BBG buffer/100 g brain, centrifuged at 6500 g for 15 min and after removal of […], re-centrifuged at 100,000 g for 75 min. The volume of the supernatant (Vml) is measured and V/10 ml 10 mM GTP (Li salt) in H2 O added. The mixture is incubated in sealed centrifuge tubes (30 min, 34° C.) in a shaking water bath to polymerise the tubulin. After polymerisation the tubes are balanced and centrifuged at 100,000 g, (1 h at 27° C.) in a pre-warmed rotor. The high-speed pellet is resuspended in V/4 ml BB buffer and the preparation stirred on ice for 30 min and centrifuged at 100,000 g (1 h at 4° C.) to remove the cold-stable microtubules. An equal volume of BB2G buffer is added to the supernatant which is frozen rapidly in 5 ml samples in plastic weighing dishes floated on a solid CO2 /ethanol slurry, and stored overnight at -80° C. After ca. 18 hours the frozen samples of tubulin are thawed, 10 mM GTP in H2 O added to give a final concentration of 1 mM, and the new volume (Wml), is measured. The polymerisation/depolymerisation cycle is repeated exactly as above but substituting W for V to give twice-cycled tubulin.
2. Turbidimetric Assay of Tubulin Polymerisation
Apparatus: recording spectrophotometer with a 6-position, thermostatted cuvette holder; full scale deflection=0.2 absorbance units.
In a 1 ml spectrophotometer cuvette are mixed 100 μl 10 mM GTP (Li salt) made up in BB buffer, 10 μl H2 O or DMSO-depending on selected drug solvent, BB buffer and tubulin preparation such that the final increase in A350nm is 0.15 units after 16 mins (approx. 100 μl of tubulin prep. or 2.5 mg protein) in a final volume of 1 ml at 37° C. All reagents are stored on ice.
Polymerisation is initiated by raising the temperature to 37° C. and the increase in A350nm of triplicate samples against a reference cuvette is recorded. The reference sample includes a similar incubation mixture either without tubulin or with the addition of 1 mM Ca^2+. The increase over initial A350nm 10 min after the completion of lag phase (control polymerisation is 80% complete within this time) is calculated and expressed as a percentage of the control value, for a range of drug concentrations. The drug concentration required to give a 50% change (IC50) in the control value is determined.

P388 D1 cells = experiment: P388 D1 colony-forming assay; type: cell-based; conditions: Mus musculus, P388D1; 24 h exposure, 14 days colony growth; read-out: IC50 colony formation
Experimental: B) P338D1 Colony-forming Assay
In this assay, cells from an in vitro-adapted line of the mouse lymphoid neoplasm, P388 are first exposed to serially diluted concentrations of test compound over a 24 hour period in culture. Thereafter, the ability of such treated cells to form discrete colonies over a 14 day period after resuspension in a semi-solid drug-free medium is determined.
Initially cells in log growth are plated into individual 25 cm^2 tissue culture flasks each containing a final volume of 5 mls of Hepes buffered RPMI 1640 culture medium supplemented with 10 percent foetal calf serum, antibiotics and test compound. All compounds are formulated initially at appropriate concentrations in DMSO, 25 microliters of which is then added to each flask. All compounds are evaluated at concentrations ranging serially in four fold decrements from a top concentration some four fold greater than that already known to inhibit the proliferation of these cells by about 80 to 90 percent in the primary proliferative assay.
After 24 hrs exposure to the test compound the cells are counted and a known number of live cells transferred to a 15 ml centrifuge tube to which 4 mls of a 0.25 percent low temperature gelling agarose solution in complete RPMI tissue culture medium is then added. After 13 days incubation at 37° C., 1 ml of 1% p-Iodonitrotetrazolium violet is added to the top of each tube and allowed to permeate through the agarose for a further 24 to 48 hrs. This dye is metabolised by living cells to produce an insoluble red crystalline product which facilitates counting of the colonies. Samples are taken from each tube and the number of colonies containing a minimum of 50 cells is determined. The concentration of compound necessary to inhibit colony formation by 50 percent relative to that of control cells incubated under identical conditions but in the absence of the test compound is determined.

P388/O tumour = experiment: Lymphocytic leukaemia P388/O test; type: in vivo, mouse; conditions: Mus musculus, P388, ip
Experimental: C. Lymphocytic Leukemia P388/O Test
as §1

LD20 (Mouse) = type: in vivo; conditions: i.p. days 1, 5 and 9, CD2-F1 mice, observed up to 14 days
[1] = test system: DLD-1 human colon carcinoma cells; experiment: In vitro activity against human tumour cell line DLD-1 (proliferation); type: cell-based; conditions: DLD-1, 96 h, methylene blue, read-out: IC50
Experimental: (§4) Cells from the human tumour cell lines DLD-1, HCT-116, WiDr and A549 are exposed to serially diluted concentrations of test compounds over a 96 hour period in culture. The ability of such cells to proliferate over the test period is determined.
(§5) Cells in log growth are plated into 96 well multiwell tissue culture dishes in 100 μl/well of RPMI 1640 culture medium supplemented with 10% foetal calf serum, antibiotics and test compound. All compounds are formulated initially at appropriate concentrations in DMSO, the final concentrations in this solvent being twenty times that required in the plate. A final 1 in 10 dilution in complete medium is then made before adding 100 μl to each well of the plate. All compounds are evaluated at concentrations ranging serially in four fold decrements from a top concentration some four fold greater than that already known to inhibit the proliferation of cells from the mouse lymphoid neoplasm, P388D1 by about 80 to 90 percent in a primary proliferative assay.
(§6) After 96 hours the proliferation of cells exposed to test compound is compared with control untreated cells by one of two methods:
a) Culture supernatants are aspirated and cells fixed and stained by adding a solution of methylene blue (5 g per liter of 50% ethanol: water, 100 μl/well). After 30 minutes at room temperature unbound stain is washed off by immersing plates in water. Stained cells are solubilised overnight using 1% Sarkosyl (Sigma) in phosphate-buffered saline (100 μl/well). Absorbances are read by an ELISA plate spectrophotometer at a wavelength of 620 nm. The IC50 is defined as that concentration of drug which decreases absorbance to 50% of that in control (drug-free) cultures. This method is used for the DLD-1 cell line.

[2] = test system: WiDr human colon adenocarcinoma cells; experiment: In vitro activity against human tumour cell line WiDr (proliferation); type: cell-based; conditions: 96 h, MTT, read-out: IC50
Experimental: as §4, §5, §6
(§7) b) 20 μl of MTT (5 mg/ml in PBS) is added to each well. After an incubation period of 4 hours the medium from each well is aspirated and replaced with 200 μl DMSO to dissolve the formazan crystals formed. Absorbances are read by an ELISA plate spectrophotometer at a wavelength of 540 nm. The IC50 is defined as that concentration of drug which decreases absorbance to 50% of that in control (drug-free) cultures. This method is used for the WiDr, HCT-116 and A549 cell lines.

[3] = test system: HCT-116 human colon carcinoma cells; experiment: In vitro activity against human tumour cell line HCT-116 (proliferation); type: cell-based; conditions: HCT-116, 96 h, MTT, read-out: IC50
Experimental: as §4, §5, §6, §7

[4] = test system: A549 human lung carcinoma cells; experiment: In vitro activity against human tumour cell line A549 (proliferation); type: cell-based; conditions: A549, 96 h, MTT, read-out: IC50
Experimental: as §4, §5, §6, §7

P388/MTX = experiment: In vivo activity against drug resistant tumour P388/MTX; set-up: species or system mouse; conditions: optimum dose 3.0 mg/kg
Experimental: as §1, §2, §3

microtubule function = conditions: cited from earlier work
P388/VCR = experiment: In vivo activity against drug resistant tumour P388/VCR; set-up: species or system mouse; conditions: optimum dose 1.5 mg/kg
Experimental: as §1, §2, §3

## COc1cccc2c1C(=O)c1c(O)c3c(c(O)c1C2=O)C[C@@](O)(C(=O)CO)C[C@@H]3O[C@H]1C[C@H](N)[C@H](O)[C@H](C)O1 [ADR, adriamycin, reference compound]
P388/ADR
  60 Day Survivors: 0/6
  % ILS: +27%

## Cc1c2oc3c(C)ccc(C(=O)N[C@@H]4C(=O)N[C@H](C(C)C)C(=O)N5CCC[C@H]5C(=O)N(C)CC(=O)N(C)[C@@H](C(C)C)C(=O)O[C@@H]4C)c3nc-2c(C(=O)N[C@@H]2C(=O)N[C@H](C(C)C)C(=O)N3CCC[C@H]3C(=O)N(C)CC(=O)N(C)[C@@H](C(C)C)C(=O)O[C@@H]2C)c(N)c1=O [ActD, actinomycin D, reference compound] (I: T[dV]P[Sar][NMeV] / II: T[dV]P[Sar][NMeV]; ester I:1-I:C, II:1-II:C; linker I:N-II:N via Actinocin(9to1))
P388/ActD
  60 Day Survivors: 0/6
  % ILS: +27%

## O=NN(CCCl)C(=O)NCCCl [BCNU, bis-chloronitrosourea, reference compound]
P388/BCNU
  60 Day Survivors: 0/6
  % ILS: +36%

## O=P1(N(CCCl)CCCl)NCCCO1 (stereo not drawn) [CPA, cylophosphamide, reference compound]
P388/CPA
  60 Day Survivors: 0/6
  % ILS: +55%

## N.N.[Cl][Pt][Cl] [Cis--Pt, Cis-platinum, reference compound]
P388/Cis--Pt
  60 Day Survivors: 0/6
  % ILS: +21%

## O=c1[nH]cc(F)c(=O)[nH]1 [Example 5FU, 5-fluorouracil, reference compound]
P388/5FU
  60 Day Survivors: 0/6
  % ILS: +71%

## CCOC(=O)Nc1cn2nc(OCc3cc(OC)c(OC)c(OC)c3)ccc2n1 [Example 7, Ethyl N-[6-(3,4,5-trimethoxybenzyloxy)imidazo[1,2-b]pyridazin-2-yl]carbamate]
tubulin
  IC50: 520 nM
P388 D1 cells
  IC50: 6.34 nM
P388/O tumour; 5 mg/kg i.p. days 1, 5 and 9
  ILS at 5 mg/kg: 111%
LD20 (Mouse)
  LD50: 15 mg/kg
[1]
  IC50: 5.92 nM
[2]
  IC50: 19.7 nM
[3]
  IC50: 8.25 nM
[4]
  IC50: 22.4 nM

## COCCOC(=O)Nc1cn2nc(OCc3cc(OC)c(OC)c(OC)c3)ccc2n1 [Example 8, 2-Methoxyethyl N-[6-(3,4,5-trimethoxybenzyloxy)imidazo[1,2-b]pyridazin-2-yl]carbamate]
tubulin
  IC50: 230 nM
P388 D1 cells
  IC50: 2.93 nM
P388/O tumour; 10 mg/kg i.p. days 1, 5 and 9
  ILS at 10 mg/kg: 44%
LD20 (Mouse)
  LD50: 15 mg/kg
[1]
  IC50: 8.82 nM
[2]
  IC50: 41 nM
[3]
  IC50: 20.5 nM
[4]
  IC50: 39 nM

## CN(Cc1cnc2nc(N)nc(N)c2n1)c1ccc(C(=O)N[C@@H](CCC(=O)O)C(=O)O)cc1 [MTX, methotrexate, reference compound]
P388/MTX
  60 Day Survivors: 0/6
  % ILS: +15%

## CCOC(=O)Nc1cc2c(c(N)n1)N=C(CN(C)c1ccccc1)CN2 [NSC-181928]
Microtubule function
  microtubule inhibitory activity: microtubule inhibitory activity

## CC[C@]1(O)C[C@H]2CN(CCc3c([nH]c4ccccc34)[C@@](C(=O)OC)(c3cc4c(cc3OC)N(C=O)[C@H]3[C@@](O)(C(=O)OC)[C@H](OC(C)=O)[C@]5(CC)C=CCN6CC[C@]43[C@@H]65)C2)C1 [VCR, Vincristine, reference compound]
P388/VCR
  60 Day Survivors: 0/6
  % ILS: +36%
Microtubule function
  microtubule inhibitory activity: inhibitor of microtubule function

## COC(=O)Nc1nc2ccc(C(=O)c3cccs3)cc2[nH]1 [nocodazole]
Microtubule function
  microtubule inhibitory activity: microtubule inhibitory activity

## CCOC(=O)Nc1ccc(SCC2COC(Cn3ccnc3)(c3ccc(Cl)cc3Cl)O2)cc1 (stereo not drawn) [tubulazole]
Microtubule function
  microtubule inhibitory activity: microtubule inhibitory activity
